From patent publication US20060094676A1, “Compositions and methods for treating cancer using compositions comprising an inhibitor of endothelin receptor activity” (priority 2004, published 2006)
Non-standard residues stand in square brackets, D forms with d. Residues, ends and D or L forms follow the SMILES beside them.

System: VEGF
Test: Real-time RT-PCR of VEGF transcripts
Format: cell-based, human
Settings: BQ123 in combination with BQ788; melanoma cell lines of the study; data not shown
Description: Equal amounts of RNA from cells that were treated with BQ788 for 3 days were subjected to real-time RT-PCR analysis for the detection VEGF (A), HIF-1α (B) and Gravin (C) transcripts. Differences in expression levels are shown as x fold change and are statistically significant (p<0.05) unless a column in marked as non significant (N.S.). Sections of two representative tumors derived from a human melanoma cell line grown in nude mice and injected either with vehicle (D) or BQ788 (E) were stained with anti CD-31 to highlight blood vessels (brown staining, Lahav et al, 1999).
RNA was prepared from the different cell lines in different culture conditions using SV total RNA isolation kit (Promega) according to the manufacturer's protocol. For each sample RNA concentration was determined using the total RNA nano procedure of an Agilent bioanalyzer. A stock of SK-MEL-28 RNA aliquots was prepared containing 10, 20, 50, 100, 200, 500 and 1000 ng/12 μl for use as a standard curve and kept in −80° C. For the experimental unknown samples, a stock of 100 ng/12 μl RNA aliquots from each cell line and condition was prepared and stored at −80° C. For each real-time experiment one series of standard curve and unknown experimental series of aliquots was put on ice for use. Complementary DNA was prepared by adding to each tube 0.5 μl of random hexamers (Promega) and 1 μl of 10 mM dNTP mix (Promega) and incubating at 65° C. for 5 min. 4 μl of 5× M-MLV buffer (Promega), 1 μl of the RNase inhibitor RNasin (Promega) and 1 μl of M-MLV RT RNase H (Promega) were then added and the solution was incubated at 42° C. for 50 min followed by 15 min at 70° C. For real time reactions 15 μl of each cDNA sample were transferred to 3 wells in a 386 well plate. To each well we added 10 μl of TaqMan universal PCR master mix (Applied Biosystems), 1 μl of primers+probe mix (Assays-on-Demand from Applied Biosystems: EDNRB Hs00240747, BCL-2A1 Hs00187845, PARP-3 Hs00154151, VEGF Hs00173626, HIF-1α Hs00153153 and Gravin Hs00374507) and 4 μl of nuclease free water (Promega). Wells containing water instead of cDNA served as negative controls. The samples were subjected to 40 cycles of 15 sec at 95° C. and 1 min at 60° C. A standard curve of Ct versus RNA quantity was established and accordingly the Ct in the unknown samples was correlated to quantity of transcript.
Real-time PCR analysis confirmed that VEGF expression levels increased 18-fold in BQ788 treated LN-met cells and 65-fold in SK-MEL-28 cells, compared to only 2-fold in primary melanoma, and no change in the Cut-met line (FIG. 5). The changes in VEGF expression levels can be explained, at least in part, by changes in the expression levels of its known regulator hypoxia inducible factor-1 oc (HIF-1α) (Maxwell, et al., Oxygen sensors and angiogenesis, Semin. Cell Dev. Biol., 13:29-37 (2002)). […]

Question: CC(C)C[C@@H]1NC(=O)[C@@H](C(C)C)NC(=O)[C@@H]2CCCN2C(=O)[C@@H](CC(=O)O)NC(=O)[C@@H](Cc2c[nH]c3ccccc23)NC1=O [BQ123] (cyclo(L[dW][dD]P[dV])) was tested. Which “VEGF RNA levels compared to BQ788 alone” value did it give?
Answer: did not result in changes
